# Patent US20250171438A1 (Agios Pharmaceuticals, Inc., priority 2022, published 2025)
# Molecular target: T1, human PAH with the R408W mutation (Homo sapiens, UniProt P00439, R408W)
# T1 construct: expressed in transfected cells
# T1 sequence (P00439 1-452 R408W): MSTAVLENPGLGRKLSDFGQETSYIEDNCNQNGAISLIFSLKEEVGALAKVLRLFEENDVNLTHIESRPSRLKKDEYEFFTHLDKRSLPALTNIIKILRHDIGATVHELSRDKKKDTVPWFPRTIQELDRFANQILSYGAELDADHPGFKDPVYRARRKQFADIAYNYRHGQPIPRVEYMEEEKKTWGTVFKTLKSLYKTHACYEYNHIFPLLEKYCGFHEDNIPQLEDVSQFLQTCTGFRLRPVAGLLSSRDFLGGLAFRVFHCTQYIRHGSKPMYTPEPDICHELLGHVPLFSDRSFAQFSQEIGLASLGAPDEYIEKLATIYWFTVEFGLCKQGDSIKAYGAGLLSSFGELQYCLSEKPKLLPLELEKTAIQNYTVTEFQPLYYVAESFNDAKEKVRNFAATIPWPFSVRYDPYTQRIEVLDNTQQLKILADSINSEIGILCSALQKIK
# Assay: Cell Based Phenylalanine Flux Assay
# Conditions: A375 cells expressing human R408W PAH; 24 hrs compound incubation; 13C-Tyrosine by LC-MS; average where tested multiple times; read-out: AC50
row,AC50,SMILES
1,> 5 µM,"O=C(CCc1nccs1)N1CCc2[nH]cnc2[C@@H]1c1nc2c(F)cccc2s1 [Example 1078, (R)-1-(4-(4-fluorobenzo[d]thiazol-2-yl)-6,7-dihydro-1H-imidazo[4,5-c]pyridin-5(4H)-yl)-3-(thiazol-2-yl)propan-1-one]"
2,1 to 5 µM,"CC(C)(O)c1ncc(C(=O)N2CCc3[nH]cnc3[C@@H]2c2nc3c(F)cccc3s2)s1 [Example 1478, (R)-(4-(4-fluorobenzo[d]thiazol-2-yl)-6,7-dihydro-1H-imidazo[4,5-c]pyridin-5(4H)-yl)(2-(2-hydroxypropan-2-yl)thiazol-5-yl)methanone]"
3,1 to 5 µM,"Cn1nc(C2CCC2)cc1C(=O)N1CCc2[nH]cnc2[C@@H]1c1nc2c(F)cccc2s1 [Example 1854, (R)-(3-cyclobutyl-1-methyl-1H-pyrazol-5-yl)(4-(4-fluorobenzo[d]thiazol-2-yl)-6,7-dihydro-1H-imidazo[4,5-c]pyridin-5(4H)-yl)methanone]"
4,< 0.5 µM,"CC(C)(O)c1ncc(C(=O)N2CCc3[nH]cnc3[C@H]2c2nc3c(F)cccc3s2)s1 [Example 1477, (S)-(4-(4-fluorobenzo[d]thiazol-2-yl)-6,7-dihydro-1H-imidazo[4,5-c]pyridin-5(4H)-yl)(2-(2-hydroxypropan-2-yl)thiazol-5-yl)methanone]"
5,0.5 to 1 µM,"CC(F)c1nc(C(F)F)c(C(=O)N2CCc3[nH]cnc3[C@@H]2c2nc3c(F)cccc3s2)o1 (stereo partly drawn) [Example 2076, (4-(difluoromethyl)-2-(1-fluoroethyl)oxazol-5-yl)((R)-4-(4-fluorobenzo[d]thiazol-2-yl)-6,7-dihydro-1H-imidazo[4,5-c]pyridin-5(4H)-yl)methanone]"
6,< 0.5 µM,O=C(c1ccnn1C1CC1)N1CCc2[nH]cnc2[C@H]1c1nc2c(F)cccc2s1 [Example 1735]
7,< 0.5 µM,"Cc1nc(C(C)(C)F)oc1C(=O)N1CCc2[nH]cnc2[C@H]1c1nc2c(F)cccc2s1 [Example 1499, (S)-(4-(4-fluorobenzo[d]thiazol-2-yl)-6,7-dihydro-1H-imidazo[4,5-c]pyridin-5(4H)-yl)(2-(2-fluoropropan-2-yl)-4-methyloxazol-5-yl)methanone]"
8,> 5 µM,"Cn1nc(C(F)(F)F)cc1C(=O)N1CCc2[nH]cnc2[C@@H]1c1nc2c(F)cccc2s1 [Example 1788, (R)-(4-(4-fluorobenzo[d]thiazol-2-yl)-6,7-dihydro-1H-imidazo[4,5-c]pyridin-5(4H)-yl)(1-methyl-3-(trifluoromethyl)-1H-pyrazol-5-yl)methanone]"
9,> 5 µM,"Cc1nc(-c2ccccn2)oc1C(=O)N1CCc2[nH]cnc2[C@@H]1c1nc2c(F)cccc2s1 [Example 1446, (R)-(4-(4-fluorobenzo[d]thiazol-2-yl)-6,7-dihydro-1H-imidazo[4,5-c]pyridin-5(4H)-yl)(4-methyl-2-(pyridin-2-yl)oxazol-5-yl)methanone]"
10,< 0.5 µM,"O=C(c1oc(NC2CC2)nc1C(F)(F)F)N1CCc2[nH]cnc2[C@@H]1c1nc2c(F)cccc2s1 [Example 1596, (R)-(2-(cyclopropylamino)-4-(trifluoromethyl)oxazol-5-yl)(4-(4-fluorobenzo[d]thiazol-2-yl)-6,7-dihydro-1H-imidazo[4,5-c]pyridin-5(4H)-yl)methanone]"
11,0.5 to 1 µM,CC(C)n1ncc(C(=O)N2CCc3[nH]cnc3[C@H]2c2nc3c(F)cccc3s2)c1Cl [Example 1951]
12,< 0.5 µM,"O=C(c1ocnc1C(F)(F)F)N1CCc2[nH]cnc2[C@H]1c1nc2c(F)cccc2s1 [Example 1493, (S)-(4-(4-fluorobenzo[d]thiazol-2-yl)-6,7-dihydro-1H-imidazo[4,5-c]pyridin-5(4H)-yl)(4-(trifluoromethyl)oxazol-5-yl)methanone]"
13,< 0.5 µM,"Cc1nc(C(C)(C)C#N)oc1C(=O)N1CCc2[nH]cnc2[C@H]1c1nc2c(F)cccc2s1 [Example 1998, (S)-2-(5-(4-(4-fluorobenzo[d]thiazol-2-yl)-4,5,6,7-tetrahydro-1H-imidazo[4,5-c]pyridine-5-carbonyl)-4-methyloxazol-2-yl)-2-methylpropanenitrile]"
14,1 to 5 µM,"O=C(c1nncs1)N1CCc2[nH]cnc2[C@@H]1c1nc2cccc(F)c2s1 [Example 1265, (R)-(4-(7-fluorobenzo[d]thiazol-2-yl)-6,7-dihydro-1H-imidazo[4,5-c]pyridin-5(4H)-yl)(1,3,4-thiadiazol-2-yl)methanone]"

# Continued, molecule first:
row,SMILES,AC50
1,"Cc1nnc(C(=O)N2CC3(CC3)c3[nH]cnc3[C@@H]2c2nc3ccccc3s2)o1 [Example 1685, (R)-(4′-(benzo[d]thiazol-2-yl)spiro[cyclopropane-1,7′-imidazo[4,5-c]pyridin]-5′(1′H,4′H,6′H)-yl)(5-methyl-1,3,4-oxadiazol-2-yl)methanone]",1 to 5 µM
2,"O=C(c1cnn2ccccc12)N1CCc2[nH]cnc2[C@@H]1c1nc2cccc(Cl)c2[nH]1 [Example 985, (R)-(4-(7-chloro-1H-benzo[d]imidazol-2-yl)-6,7-dihydro-1H-imidazo[4,5-c]pyridin-5(4H)-yl)(pyrazolo[1,5-a]pyridin-3-yl)methanone]",> 5 µM
3,"O=C(c1nccs1)N1CCc2[nH]cnc2[C@H]1c1nc2cccc(Cl)c2[nH]1 [Example 984, (S)-(4-(7-chloro-1H-benzo[d]imidazol-2-yl)-6,7-dihydro-1H-imidazo[4,5-c]pyridin-5(4H)-yl)(thiazol-2-yl)methanone]",0.5 to 1 µM
4,"c1ccc2[nH]c([C@@H]3c4nc[nH]c4CCN3c3nc4ccccc4o3)nc2c1 [Example 988, (S)-2-(4-(1H-benzo[d]imidazol-2-yl)-6,7-dihydro-1H-imidazo[4,5-c]pyridin-5(4H)-yl)benzo[d]oxazole]",< 0.5 µM
5,"O=C(c1oc(CCC2CC2)nc1C(F)(F)F)N1CCc2[nH]cnc2[C@@H]1c1nc2ccccc2s1 [Example 1580, (R)-(4-(benzo[d]thiazol-2-yl)-6,7-dihydro-1H-imidazo[4,5-c]pyridin-5(4H)-yl)(2-(2-cyclopropylethyl)-4-(trifluoromethyl)oxazol-5-yl)methanone]",< 0.5 µM
6,O=C(c1cnc(C(F)(F)F)s1)N1CCc2[nH]cnc2[C@H]1c1nc2ccccc2s1 [Example 1181],0.5 to 1 µM
7,"O=C(c1oc(-c2ccccn2)nc1C(F)(F)F)N1CC2(CC2)c2[nH]cnc2[C@H]1c1nc2ccccc2s1 [Example 1681, (S)-(4′-(benzo[d]thiazol-2-yl)spiro[cyclopropane-1,7′-imidazo[4,5-c]pyridin]-5′(1′H,4′H,6′H)-yl)(2-(pyridin-2-yl)-4-(trifluoromethyl)oxazol-5-yl)methanone]",0.5 to 1 µM
8,"O=C(c1cnn2c(Br)cccc12)N1CCc2[nH]cnc2[C@@H]1c1nc2ccccc2s1 [Example 1070, (R)-(4-(benzo[d]thiazol-2-yl)-6,7-dihydro-1H-imidazo[4,5-c]pyridin-5(4H)-yl)(7-bromopyrazolo[1,5-a]pyridin-3-yl)methanone]",1 to 5 µM
9,CC(C)(O)c1nc(C(F)F)c(C(=O)N2CCc3[nH]cnc3[C@H]2c2nc3ccccc3s2)s1 [Example 2105],< 0.5 µM
10,O=C(c1ncn2ccccc12)N1CCc2[nH]cnc2[C@H]1c1nc2ccccc2s1 [Example 1027],0.5 to 1 µM
11,CC(C)(O)/C=C/c1nc(C(F)(F)F)c(C(=O)N2CCc3[nH]cnc3[C@H]2c2nc3ccccc3s2)o1 [Example 1569],< 0.5 µM
12,O=C(c1oc(CN2CCOCC2)nc1C(F)(F)F)N1CCc2[nH]cnc2[C@H]1c1nc2ccccc2s1 [Example 1627],< 0.5 µM
13,"O=C(c1nc(Cl)cs1)N1CCc2[nH]cnc2[C@H]1c1nc2ccc(Br)cc2[nH]1 [Example 949, (S)-(4-(6-bromo-1H-benzo[d]imidazol-2-yl)-6,7-dihydro-1H-imidazo[4,5-c]pyridin-5(4H)-yl)(4-chlorothiazol-2-yl)methanone]",< 0.5 µM
14,"O=C(CC1(O)CCC1)N1CCc2[nH]cnc2[C@@H]1c1nc2ccccc2s1 [Example 1658, (R)-1-(4-(benzo[d]thiazol-2-yl)-6,7-dihydro-1H-imidazo[4,5-c]pyridin-5(4H)-yl)-2-(1-hydroxycyclobutyl)ethanone]",0.5 to 1 µM
15,O=C(c1cnc(-c2ccc(F)cn2)o1)N1CCc2[nH]cnc2[C@H]1c1nc2ccccc2s1 [Example 1337],< 0.5 µM

# Same assay, conditions: A375 cells expressing human R408W PAH; 24 hrs with compound; 13C-Tyrosine by LC-MS; average where tested multiple times; read-out: AC50
row,AC50,SMILES
1,> 5 µM,Cn1nc(C(N)=O)cc1C(=O)N1CCc2[nH]cnc2C1c1nc2c(F)cccc2s1 (stereo not shown)
2,1 to 5 µM,Cn1nnc(C(=O)N2CCc3[nH]cnc3C2c2nc3ccccc3s2)n1 (stereo not shown)
3,1 to 5 µM,Cn1nc(-c2ccc(Cl)cc2)cc1C(=O)N1CCc2[nH]cnc2C1c1nc2c(F)cccc2s1 (stereo not shown)
4,> 5 µM,O=C(c1cc(CO)n[nH]1)N1CCc2[nH]cnc2C1c1nc2c(F)cccc2s1 (stereo not shown)

# The remaining lines, values behind:
row,SMILES,AC50
1,O=C(C1CN(c2ccccn2)C1)N1CCc2[nH]cnc2C1c1nc2ccccc2s1 (stereo not shown),> 5 µM
2,Cc1nc(CCN2CC(F)C2)oc1C(=O)N1CCc2[nH]cnc2C1c1nc2ccccc2s1 (stereo not shown),> 5 µM
3,O=C(c1oc(-c2ccccc2)nc1-c1ccccc1)N1CCc2[nH]cnc2C1c1nc2ccccc2s1 (stereo not shown),> 5 µM
4,O=C(Cc1nccs1)N1CCc2[nH]cnc2C1c1nc2cc(F)ccc2s1 (stereo not shown),1 to 5 µM
5,"c1ccc2sc([C@@H]3c4nc[nH]c4CCN3CC3CC3)nc2c1 (single isomer, unassigned)",1 to 5 µM
6,O=C(c1ccon1)N1CCc2[nH]cnc2C1c1nc2ccccc2s1 (stereo not shown),1 to 5 µM
7,"O=C(C1CCCCC1)N1CCc2[nH]cnc2[C@H]1c1nc2ccccc2[nH]1 [(S)-(4-(1H-benzo[d]imidazol-2-yl)-1,4,6,7-tetrahydro-5H-imidazo[4,5-c]pyridin-5-yl)(cyclohexyl)methanone]",1 to 5 µM
